For one series, the target named is hERG (KCNH2) (Homo sapiens, UniProt Q12809). The series is described as follows: Inhibition of human ERG expressed in HEK293 cells at 10 uM by semi-automatic patch clamp assay relative to control. The series is classed as cell-based. The conditions noted are these: HEK293 cells that express hERG.
For series [1], the target named is T1, Peroxisome proliferator-activated receptor alpha (Homo sapiens, UniProt Q07869).
T1 sequence (Q07869 whole entry): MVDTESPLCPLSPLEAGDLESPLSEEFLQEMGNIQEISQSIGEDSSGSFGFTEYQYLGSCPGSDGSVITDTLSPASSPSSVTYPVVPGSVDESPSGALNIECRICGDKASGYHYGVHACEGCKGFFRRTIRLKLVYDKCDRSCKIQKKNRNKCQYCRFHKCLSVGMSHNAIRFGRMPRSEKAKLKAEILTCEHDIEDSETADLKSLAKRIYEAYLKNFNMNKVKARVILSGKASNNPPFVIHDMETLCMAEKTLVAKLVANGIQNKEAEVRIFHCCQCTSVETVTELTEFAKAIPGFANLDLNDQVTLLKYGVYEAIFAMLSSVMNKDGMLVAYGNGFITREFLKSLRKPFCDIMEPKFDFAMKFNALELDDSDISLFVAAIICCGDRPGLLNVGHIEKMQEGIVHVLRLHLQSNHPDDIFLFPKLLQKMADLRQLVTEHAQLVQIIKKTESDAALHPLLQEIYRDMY
The series can be described thus: Transactivation of GAL4-fused human PPARalpha expressed in African green monkey CV1 cells by luciferase reporter gene assay. Type of series: cell-based, CV-1. (In general: Reporter assays use an easily measured gene product as a stand-in for the process of interest.)

For series [2], the target named is T2, Peroxisome proliferator-activated receptor gamma (Homo sapiens, UniProt P37231).
T2 sequence (P37231 whole entry): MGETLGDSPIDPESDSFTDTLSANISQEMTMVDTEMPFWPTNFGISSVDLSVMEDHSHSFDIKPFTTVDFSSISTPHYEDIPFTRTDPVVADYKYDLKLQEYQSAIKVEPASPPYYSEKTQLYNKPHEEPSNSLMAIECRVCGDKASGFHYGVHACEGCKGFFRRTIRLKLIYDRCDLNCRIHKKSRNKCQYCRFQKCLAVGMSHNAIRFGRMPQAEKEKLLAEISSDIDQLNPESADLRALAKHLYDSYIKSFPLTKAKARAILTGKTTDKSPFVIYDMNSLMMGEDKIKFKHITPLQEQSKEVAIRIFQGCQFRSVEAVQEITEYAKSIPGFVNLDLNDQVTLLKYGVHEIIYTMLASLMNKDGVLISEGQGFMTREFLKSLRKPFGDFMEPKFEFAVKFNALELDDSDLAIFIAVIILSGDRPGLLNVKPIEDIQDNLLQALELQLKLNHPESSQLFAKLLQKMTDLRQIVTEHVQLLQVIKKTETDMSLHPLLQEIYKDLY
The series can be described thus: Transactivation of GAL4-fused human PPARgamma expressed in African green monkey CV1 cells by luciferase reporter gene assay. Type of series: cell-based, CV-1.

Series [3] can be described thus: AUC (0 to infinity) in CD-1 mouse at 1 mg/kg, iv or 3 mg/kg, po. The conditions noted are these: in vivo. The series is classed as ADME, organism-based.
The nature of series [4]: Elimination half life in CD-1 mouse at 1 mg/kg, iv or 3 mg/kg, po. The series is classed as ADME, organism-based. The conditions noted are these: in vivo, read-out: beta t1/2 (converted).
Series [5] can be described thus: Oral bioavailability in CD-1 mouse at 3 mg/kg. Type of series: ADME, organism-based. The conditions noted are these: in vivo.
Series [6] deals with Voltage-gated inwardly rectifying potassium channel KCNH2 (Homo sapiens, UniProt Q12809). The series is described as follows: Inhibition of human ERG expressed in HEK293 cells by semi-automatic patch clamp assay. The series is classed as cell-based. In general terms: Patch clamp records ionic current or voltage across a cell membrane.
Voltage-gated inwardly rectifying potassium channel KCNH2, sequence (Q12809 whole entry): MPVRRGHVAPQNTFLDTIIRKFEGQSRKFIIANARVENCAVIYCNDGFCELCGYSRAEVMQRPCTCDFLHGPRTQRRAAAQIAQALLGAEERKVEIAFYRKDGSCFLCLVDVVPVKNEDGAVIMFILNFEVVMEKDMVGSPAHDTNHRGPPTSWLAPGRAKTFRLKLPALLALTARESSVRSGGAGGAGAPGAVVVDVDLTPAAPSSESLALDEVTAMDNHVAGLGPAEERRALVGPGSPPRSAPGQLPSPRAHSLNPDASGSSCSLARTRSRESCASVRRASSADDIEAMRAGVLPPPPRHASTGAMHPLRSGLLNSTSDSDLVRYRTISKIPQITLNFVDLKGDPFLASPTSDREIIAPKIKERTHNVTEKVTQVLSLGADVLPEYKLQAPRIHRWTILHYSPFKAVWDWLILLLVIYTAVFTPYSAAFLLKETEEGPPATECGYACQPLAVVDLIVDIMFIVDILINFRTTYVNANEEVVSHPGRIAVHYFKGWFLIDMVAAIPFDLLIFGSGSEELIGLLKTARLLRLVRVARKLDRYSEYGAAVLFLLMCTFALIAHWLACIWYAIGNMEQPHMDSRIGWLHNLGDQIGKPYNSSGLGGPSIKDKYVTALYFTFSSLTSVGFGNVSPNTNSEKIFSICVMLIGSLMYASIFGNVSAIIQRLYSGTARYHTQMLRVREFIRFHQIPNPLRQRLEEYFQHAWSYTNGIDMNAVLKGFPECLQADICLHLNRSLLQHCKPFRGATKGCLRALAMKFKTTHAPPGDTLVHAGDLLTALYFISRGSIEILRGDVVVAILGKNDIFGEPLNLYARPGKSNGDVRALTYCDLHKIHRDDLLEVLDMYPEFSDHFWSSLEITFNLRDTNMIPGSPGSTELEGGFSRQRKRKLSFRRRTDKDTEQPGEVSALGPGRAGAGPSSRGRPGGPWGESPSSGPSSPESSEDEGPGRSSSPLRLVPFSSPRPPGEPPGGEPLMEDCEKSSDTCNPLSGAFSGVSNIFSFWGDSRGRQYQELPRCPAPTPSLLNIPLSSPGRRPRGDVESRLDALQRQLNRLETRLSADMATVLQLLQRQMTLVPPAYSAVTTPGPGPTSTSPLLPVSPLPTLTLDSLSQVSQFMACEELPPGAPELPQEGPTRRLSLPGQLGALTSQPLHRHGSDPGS

The text below walks through data of ChEMBL document CHEMBL4610040, “Addressing hERG activity while maintaining favorable potency, selectivity and pharmacokinetic properties of PPARδ modulators” (Bioorg Med Chem Lett, 2020).

hERG (KCNH2), sequence (Q12809 whole entry): as above

Broadly, the inhibition is how much of the control response was suppressed. As for `CN(Cc1ccccc1OCCCCCC(=O)O)C(=O)c1ccc(-c2ccco2)cc1`, on hERG (KCNH2), the inhibition at 10 µM is less than 15%.
Still for that read-out and setting: as for `C/C(=C\COc1ccccc1Cc1sc(C)nc1-c1ccc2oc(C)cc2c1)CCC(=O)O`, the figure is 14%; as for `Cc1cc2cc(-c3ncc(C)n3Cc3ccccc3OCCCCCC(=O)O)ccc2o1`, 51%.
The same measure, in the same setting: for `Cc1cnc(-c2ccc(C#N)cc2)n1Cc1ccccc1OCCC[C@@H](C)CC(=O)O` the value was 15%.
What is called EC50 is the concentration at which the effect is half-maximal. For orientation: AUC(0-inf) means the area under the concentration-time curve extrapolated to infinity. A word on the bioavailability: it is the share of a dose that reaches the circulation, judged against a reference dose that is usually intravenous. For the compound `C[C@H](CCCOc1ccccc1Cn1c(Cl)cnc1-c1ccc(C(F)(F)F)cc1)CC(=O)O`, the 50% effective concentration (EC50) in series [1] and in series [2] was more than 100 µM each time. Further, the AUC(0-inf) in series [3] is 3880 ng·h/mL. For the same compound, in series [4], the half-life was 3.5 h. The bioavailability in series [5] came to 100%.
As usually defined, the IC50 is the concentration at which inhibition is half-maximal. In series [6], `Cc1cnc(-c2ccc(-c3ccco3)cc2)n1Cc1ccccc1OCCCCCC(=O)O` returned a half-inhibitory concentration (IC50) of 5.5 µM.
In the case of `Cc1nc(-c2cc(F)c(-c3ccco3)c(F)c2)c(Cc2ccccc2OCCC[C@@H](C)CC(=O)O)s1`, testing at 10 µM on hERG (KCNH2) gave an inhibition of 4%.
`C/C(=C\COc1ccccc1Cc1c(C)cnn1-c1ccc(C(F)(F)F)cc1)CCC(=O)O` had an inhibition at 10 µM on hERG (KCNH2) of 4%.
As to `C[C@H](CCCOc1ccccc1Cn1c(C(F)(F)F)cnc1-c1ccc(C#N)cc1)CC(=O)O`, the inhibition at 10 µM against hERG (KCNH2) was 4%. Moreover, the concentration giving a half-maximal response (EC50) in series [1] and in series [2] was more than 100 µM in each case. The area under the curve AUC(0-inf) in series [3] is 14700 ng·h/mL.
In turn, `C[C@H](CCCOc1ccccc1Cn1c(C(F)(F)F)cnc1-c1ccc(C(F)(F)F)cc1)CC(=O)O` gave an inhibition at 10 µM against hERG (KCNH2) of 5.7%. In addition, the EC50 in series [1] and in series [2] was more than 100 µM each time. The AUC(0-inf) in series [3] was 6960 ng·h/mL. For the same compound, in series [4], the half-life is 5.8 h. In addition, in series [5], the bioavailability was found to be 70%.
For `Cc1cnc(-c2ccc(OC(F)(F)F)cc2)n1Cc1ccccc1OCCC[C@@H](C)CC(=O)O`, the IC50 in series [6] came out at 10 µM.
